Experimental data taken from publication PMC5647378, “Structural and Mechanistic Analysis of Drosophila melanogaster Agmatine N-Acetyltransferase, an Enzyme that Catalyzes the Formation of N-Acetylagmatine” (Scientific Reports, 2017).
Values joined by “and” are separate entries in the source; they are usually repeats but may differ in a detail not shown here. Identical values can stand only once. Like-named read-outs stand apart in the source and are kept apart here.

Legend:
[1] = target: T1, Drosophila melanogaster AgmNAT (CG15766), wild-type (Drosophila melanogaster, UniProt Q9W469); assay: AgmNAT steady-state kinetics, coenzyme A release with Ellman's reagent (DTNB); format: biochemical
Protocol: (§1) Steady-state kinetic constants for AgmNAT were determined by measuring the rate of coenzyme A release using Ellman’s reagent (DTNB) at 412 nm (molar absorptivity = 13,600 M^−1 cm^−1)[15]–[17]. […] Initial velocities were measured using a Cary 300 Bio UV-Visible spectrophotometer at 22 °C. Acyl-CoA kinetic constants were evaluated by holding the concentration of agmatine at a constant saturating concentration (5 mM). […] The apparent kinetic constants were determined by fitting the resulting data to equation 1 using SigmaPlot 12.0, where vo is the initial velocity, Vmax,app is the apparent maximal velocity, [S] is the substrate concentration, and Km,app is the apparent Michaelis constant. Each assay was performed in triplicate and the uncertainty for the kcat,app and (kcat/Km)app values were calculated using equation 2, where σ is the standard error.1 vo=Vmax,app[S]/Km,app+[S] 2 σ(x/y)=x/y(σx/x)^2+(σy/y)^2

AgmNAT E34A mutant = target: T2, AgmNAT E34A mutant (Drosophila melanogaster, UniProt Q9W469, E34A); assay: Steady-state kinetics of AgmNAT site-directed mutant E34A; format: biochemical; details: for (kcat/Km)app–mutant/(kcat/Km)app–wild–type×100: E34A
T2 sequence (Q9W469 1-216 E34A): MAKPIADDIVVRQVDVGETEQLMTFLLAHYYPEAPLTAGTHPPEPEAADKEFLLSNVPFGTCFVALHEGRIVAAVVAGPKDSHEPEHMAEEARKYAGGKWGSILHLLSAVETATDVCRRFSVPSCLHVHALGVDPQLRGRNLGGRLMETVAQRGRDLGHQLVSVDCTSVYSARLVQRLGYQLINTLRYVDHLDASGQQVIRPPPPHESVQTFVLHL
Protocol: (§2) Site-directed mutants of AgmNAT were constructed by the overlap extension method. Using the primers shown in Table S1, each mutant was amplified using pfuUltra High-Fidelity DNA polymerase with the following PCR conditions: initial denaturing step of 95 °C for 2 min, then 30 cycles of 95 °C for 30 s; 60 °C annealing temperature for 30 s; 72 °C extension step for 1 min; then a final extension step of 72 °C for 10 min. Following the amplification of the AgmNAT site-directed mutant, the sub-cloning, expression, and purification procedures are the same as discussed for the wild-type enzyme.
as §1

AgmNAT P35A mutant = target: T3, AgmNAT P35A mutant (Drosophila melanogaster, UniProt Q9W469, P35A); assay: Steady-state kinetics of AgmNAT site-directed mutant P35A; format: biochemical
T3 sequence (Q9W469 1-216 P35A): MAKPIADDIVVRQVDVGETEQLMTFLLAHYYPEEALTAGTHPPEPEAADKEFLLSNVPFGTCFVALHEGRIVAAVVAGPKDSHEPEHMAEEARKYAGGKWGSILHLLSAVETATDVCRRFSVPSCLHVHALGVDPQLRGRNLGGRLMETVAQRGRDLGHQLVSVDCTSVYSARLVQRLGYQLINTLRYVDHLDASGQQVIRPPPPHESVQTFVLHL
Protocol: as §2
as §1, with “Each assay was performed in triplicate and the uncertainty for the kcat,app and (kcat/Km)app values were calculated using equation 2, where σ is the standard error.1 vo=Vmax,app[S]/Km,app+[S] 2 σ(x/y)=x/y(σx/x)^2+(σy/y)^2” left out

AgmNAT S171A mutant = target: T4, AgmNAT S171A mutant (Drosophila melanogaster, UniProt Q9W469, S171A); assay: Steady-state kinetics of AgmNAT site-directed mutant S171A; format: biochemical; details: for (kcat/Km)app–mutant/(kcat/Km)app–wild–type×100: S171A
T4 sequence (Q9W469 1-216 S171A): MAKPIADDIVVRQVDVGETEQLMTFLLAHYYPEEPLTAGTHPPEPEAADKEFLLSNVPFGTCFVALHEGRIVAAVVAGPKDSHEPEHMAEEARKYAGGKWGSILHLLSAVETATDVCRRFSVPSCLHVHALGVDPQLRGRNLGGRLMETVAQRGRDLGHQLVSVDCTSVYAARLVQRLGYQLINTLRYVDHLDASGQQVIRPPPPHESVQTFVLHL
Protocol: as §2, §1

AgmNAT H206A mutant = target: T5, AgmNAT H206A mutant (Drosophila melanogaster, UniProt Q9W469, H206A); assay: Steady-state kinetics of AgmNAT site-directed mutant H206A; format: biochemical; details: for increase of Km,app versus wild-type: H206A mutant; for (kcat/Km)app–mutant/(kcat/Km)app–wild–type×100: H206A
T5 sequence (Q9W469 1-216 H206A): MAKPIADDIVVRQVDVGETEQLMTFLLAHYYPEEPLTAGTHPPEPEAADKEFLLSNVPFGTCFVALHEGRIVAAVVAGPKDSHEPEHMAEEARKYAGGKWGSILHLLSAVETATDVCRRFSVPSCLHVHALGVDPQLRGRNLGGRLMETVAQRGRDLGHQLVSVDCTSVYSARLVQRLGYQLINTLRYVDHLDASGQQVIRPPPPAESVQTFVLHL
Protocol: as §2, §1

[2] = target: T1, Drosophila melanogaster AgmNAT (CG15766), wild-type; assay: AgmNAT dead-end and product inhibition analysis; format: biochemical
Protocol: Initial velocities were determined by varying the concentration of one substrate, while holding the other substrate at a fixed concentration. […] The resulting initial velocity data was fit to equation 3 for an ordered Bi-Bi mechanism and equation 4 for a ping pong mechanism using IGOR Pro 6.34 A, where vo is the initial velocity, Vmax is the maximal velocity, Kia is the dissociation constant for substrate A, Kb is the Michaelis constant for substrate B, Ka is the Michaelis constant for substrate A, [A] is the concentration of substrate A, and [B] is the concentration of substrate B.3 vo=Vmax[A][B]/KiaKb+Ka[B]+Kb[A]+[A][B] 4 vo=Vmax[A][B]/Ka[B]+Kb[A]+[A][B]
Inhibition experiments by either substrate analogs or N-acetylagamatine were used to discriminate between an ordered, random sequential, or ping pong kinetic mechanism. […] Initial velocity patterns were generated by varying the concentration of one substrate, holding the other substrate concentration at its apparent Km, and changing the concentration of inhibitor for each data set in triplicate. The resulting data was fit to equations 5–7, for competitive, noncompetitive, and uncompetitive inhibition respectively using SigmaPlot 12.0. For […], vo is the initial velocity, Vmax,app is the apparent maximal velocity, Km,app is the apparent Michaelis constant, [S] is the substrate concentration, [I] is the inhibitor concentration, and Ki is the inhibition constant.5 vo=Vmax,app[S]/Km,app(1+[I]/Ki)+[S] 6 vo=Vmax,app[S]/Km,app(1+[I]/Ki)+[S](1+[I]/Ki) 7 vo=Vmax,app[S]/Km,app+[S](1+[I]/Ki)

[3] = target: T1, Drosophila melanogaster AgmNAT (CG15766), wild-type; assay: AgmNAT dead-end and product inhibition analysis; format: biochemical; details: inhibitor at 10 mM
Glu34 = Glu34 (UniProt position 34, HYYPEEPLTAG); assay: kinetics; details: 22 °C; MES (pH 6.5 and 7.0), Tris (pH 7.0-9.0), AmeP (pH 9.0 and 9.5). Concentrations for the pH series not stated (standard assay is 300 mM Tris with 150 µM DTNB).; Steady-state turnover; acetyl-CoA varied, agmatine as co-substrate (5 mM saturating in the standard assay); wild-type enzyme, triplicate
[4] = substrate: CC(=O)SCCNC(=O)CCNC(=O)[C@H](O)C(C)(C)COP(=O)(O)OP(=O)(O)OC[C@H]1O[C@@H](n2cnc3c(N)ncnc32)[C@H](O)[C@@H]1OP(=O)(O)O; assay: Steady-state kinetics of AgmNAT site-directed mutant H206A; format: biochemical, Drosophila melanogaster; details: other: H206A, acetyl-CoA varied, saturating agmatine, pH 8.5
[5] = substrate: N=C(N)NCCCCN; assay: as above; format: biochemical, Drosophila melanogaster; details: other: H206A, agmatine varied, saturating acetyl-CoA, pH 8.5

T1 sequence (Q9W469 entry or part of it): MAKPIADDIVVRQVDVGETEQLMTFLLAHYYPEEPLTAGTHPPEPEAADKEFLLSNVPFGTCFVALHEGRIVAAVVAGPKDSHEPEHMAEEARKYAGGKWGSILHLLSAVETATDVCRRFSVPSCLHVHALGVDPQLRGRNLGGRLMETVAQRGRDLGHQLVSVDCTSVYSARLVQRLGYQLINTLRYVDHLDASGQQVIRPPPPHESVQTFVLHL

## CC(=O)SCCNC(=O)CCNC(=O)[C@H](O)C(C)(C)COP(=O)(O)OP(=O)(O)OC[C@H]1O[C@@H](n2cnc3c(N)ncnc32)[C@H](O)[C@@H]1OP(=O)(O)O [Acetyl-CoA]
[1]; Wild-type, acetyl-CoA varied
  (kcat/Km)app–mutant/(kcat/Km)app–wild–type×100: 100%
[1]; Wild-type, acetyl-CoA varied, saturating agmatine, pH 8.5
  kcat,app: 23 ± 1 s⁻¹
[1]; acyl-CoA varied, 5 mM agmatine, 300 mM Tris-HCl pH 8.5, 150 µM DTNB
  kcat,app: 23 ± 1 s⁻¹
[1]; acyl-CoA varied, 5 mM agmatine, 300 mM Tris-HCl pH 8.5, 150 µM DTNB, read-out: Km,app
  Km: 100 µM
AgmNAT E34A mutant; E34A mutant, acetyl-CoA
  decrease of Km,app versus wildtype: 6 fold
AgmNAT E34A mutant; acetyl-CoA varied
  (kcat/Km)app–mutant/(kcat/Km)app–wild–type×100: 0.27%
AgmNAT P35A mutant; acetyl-CoA varied
  (kcat/Km)app–mutant/(kcat/Km)app–wild–type×100: 0.86%
AgmNAT S171A mutant; S171A mutant, acetyl-CoA
  change (decrease) of Km,app versus wildtype: 3- to 4 fold
AgmNAT S171A mutant; acetyl-CoA varied
  (kcat/Km)app–mutant/(kcat/Km)app–wild–type×100: 34%
AgmNAT H206A mutant; acetyl-CoA
  increase of Km,app versus wild-type: 2.3 fold
AgmNAT H206A mutant; acetyl-CoA varied
  (kcat/Km)app–mutant/(kcat/Km)app–wild–type×100: 2.3%

## NCCCCN=C(N)N [Agmatine, (4-aminobutyl)guanidine]
[1]; Wild-type, agmatine varied
  (kcat/Km)app–mutant/(kcat/Km)app–wild–type×100: 100%
AgmNAT E34A mutant; E34A mutant, agmatine
  increase of Km,app versus wildtype: 20 fold
AgmNAT E34A mutant; agmatine varied
  (kcat/Km)app–mutant/(kcat/Km)app–wild–type×100: 0.0038%
AgmNAT P35A mutant; agmatine varied
  (kcat/Km)app–mutant/(kcat/Km)app–wild–type×100: 3.2%
AgmNAT S171A mutant; S171A mutant, agmatine
  change (increase) of Km,app versus wildtype: 3- to 4 fold
AgmNAT S171A mutant; agmatine varied
  (kcat/Km)app–mutant/(kcat/Km)app–wild–type×100: 2.7%
AgmNAT H206A mutant; agmatine
  increase of Km,app versus wild-type: 1.4 fold
AgmNAT H206A mutant; agmatine varied
  (kcat/Km)app–mutant/(kcat/Km)app–wild–type×100: 4.7%

## COC(=O)[C@@H](N)CCCN=C(N)N [Arginine methyl ester, L-arginine methyl ester]
[1]; amine substrate screen with acetyl-CoA
  acceptance as amine substrate: not AgmNAT substrates
[2]; varied substrate acetyl-CoA, constant agmatine (0.3 mM), listed as arginine methyl ester, read-out: Ki,i
  Ki: ≥ 1000 µM
[2]; varied substrate acetyl-CoA, constant agmatine (0.3 mM), read-out: Ki,i
  Ki: 2900 ± 100 µM
[2]; varied substrate agmatine, constant acetyl-CoA (0.1 mM; 104 µM), listed as arginine methyl ester, read-out: Ki,s
  Ki: ≥ 1000 µM
[2]; varied substrate agmatine, constant acetyl-CoA (0.1 mM; 104 µM), read-out: Ki,s
  Ki: 1500 ± 100 µM
[2]; versus acetyl-CoA
  type of inhibition plot (in words): uncompetitive
[2]; versus agmatine
  type of inhibition plot (in words): competitive
[3]
  decrease of the rate of N-acetylagmatine formation from acetyl-CoA and agmatine: ~ 50%

## Agmatine N-acetyltransferase (AgmNAT; formerly arylalkylamine N-acetyltransferase-like 8, AANATL8) (Drosophila melanogaster)
Glu34
  pKa: 7.7 ± 0.1 and 7.3 ± 0.2 and ~7.5

B1: AgmNAT H206A mutant (Drosophila melanogaster; H206A) (protein)
chain: MAKPIADDIVVRQVDVGETEQLMTFLLAHYYPEEPLTAGTHPPEPEAADKEFLLSNVPFGTCFVALHEGRIVAAVVAGPKDSHEPEHMAEEARKYAGGKWGSILHLLSAVETATDVCRRFSVPSCLHVHALGVDPQLRGRNLGGRLMETVAQRGRDLGHQLVSVDCTSVYSARLVQRLGYQLINTLRYVDHLDASGQQVIRPPPPAESVQTFVLHL
[4]
  Km: (2.4 ± 0.3) × 10^2 μM
  kcat: 1.3 ± 0.1 s⁻¹
  kcat/Km: 5000 ± 1000 M⁻¹ s⁻¹
[5]
  Km: 420 ± 40 µM
  kcat: 1.2 ± 0.1 s⁻¹
  kcat/Km: 2800 ± 300 M⁻¹ s⁻¹
